What was measured:
[1] = system: cardiac fibroblasts transfected with AdV-Kv1.3-GFP; assay: Phase contrast microscopy of cellular morphology of Kv1.3 expressing cardiac fibroblasts; format: cell-based, rat; conditions: cells expressing Kv1.3 after 10^7 PFU/ml AdV-Kv1.3-GFP; phase contrast microscopy (FIG. 8B)
Description: (§1) Cells: Primary neonatal cardiac cells were obtained from ventricles of 2-3-day-old rat pups. The ventricles were fine minced, dissociated in Ca^2+-free Hank's balanced salt solution (HBSS) supplemented with 0.1%, trypsin and 0.006% pancreatin, and dispersed by triturating.
(§2) Separation and culture of cardiac myocytes and fibroblasts: The solution of dispersed cells was supplemented with 10% neonatal calf serum to stop enzymatic activity, centrifuged, resuspended in culture medium, pre-plated in large culture flasks, and incubated for two hours to isolate the fibroblast enriched fraction. Fibroblasts were further purified by media exchange within 1 hour after each passage. The myocytes remaining in suspension were collected and plated at 1.5 10^5 cells/cm^2 and grown for five to seven days before experimentation.
(§3) Transfection: Subconfluent myocyte and fibroblast cultures were transfected with AdV-Kv1.3-GFP or AdV-GFP at 10^6-10^8 PFU/ml. After transfection the cells were cultured in 0-5% serum media with 0, 1, 10 or 100 nM Charybdotoxin (CTx), which is a specific K^+ channel blocker. After three days in culture, the cells were visually monitored and assayed.

[2] = system: cardiac fibroblasts transfected with AdV-Kv1.3-GFP; assay: Cell viability and apoptosis with Hoechst nuclei stain in Kv1.3 transfected cardiac fibroblasts; format: cell-based, rat; conditions: for rescue of cells from Kv1.3 induced apoptosis: Kv1.3 transfected fibroblasts, n=3 for each titer, three days in culture
Description: as §1, §2, §3
Cell Viability and apoptosis: Cells were assayed for viability and apoptosis with Hoechst nuclei stain.

Charybdotoxin
cellular morphology of the fibroblasts [1]: maintained normal cellular morphology | rescue of cells from Kv1.3 induced apoptosis ([2]; Charybdotoxin alone (FIG. 7A)): partially rescued the cells | rescue of cells from Kv1.3 induced apoptosis ([2]; cTx and 5% serum (FIG. 7B)): partially rescued the cells | cardiac fibroblast cell viability ([2]; cells expressing Kv1.3, addition of Charybdotoxin (FIG. 8)): rescued

Reference: patent US20110144028A1, “MODULATING CELLULAR ELECTROPHYSIOLOGY” (priority 2009, published 2011)
